The results in this text go back to patent publication US12679832B2, “Compounds and their uses as CD38 inhibitors” (Nanjing Immunophage Biotech Co., Ltd., priority 2021, dated 2026).

pIC50: −log10 of the molar value.

The target in the assay is T1, hCD38 Enzyme (Homo sapiens, UniProt P28907).
T1 construct: purchased Sino Biological Inc 10818-H08H
T1 sequence (P28907 43-300 limits assumed): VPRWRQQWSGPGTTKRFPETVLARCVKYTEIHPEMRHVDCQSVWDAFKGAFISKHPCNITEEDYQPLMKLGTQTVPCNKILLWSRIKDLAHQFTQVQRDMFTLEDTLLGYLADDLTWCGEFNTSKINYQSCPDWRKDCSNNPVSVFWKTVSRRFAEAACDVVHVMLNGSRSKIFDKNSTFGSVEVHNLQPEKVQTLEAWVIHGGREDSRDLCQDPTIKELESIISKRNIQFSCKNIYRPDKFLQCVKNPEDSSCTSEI
The experiment in a line: CD38 hydrolase enzymatic assay. In kind it is biochemical. The note with it: rhCD38, ε-NAD substrate, 25° C., point reading time 20 mins; read-out: hCD38 Enzyme inhibition IC50. On the procedure: Also, a blank sample was prepared with 50 μl of sucrose buffer and no test compounds.
The dynamic reading was performed at 25° C. with excitation light of 300 nm and emission light of 410 nm on the enzyme marker by contacting the above-prepared rhCD38 enzyme working fluid and the above-prepared solutions of the test compounds disclosed herein or the solution of the control. The readings were recorded for a total of 1 hour, and the data were analyzed with the point reading time of 20 mins.
Fluorescence was recorded by a microplate reader. Individual excel files containing fluorescence data were exported and the results were plotted against various drug concentrations and analyzed in GraphPad Prism 7.0 for concentration curve generation.
For `C[C@H]1CC[C@H](NC(=O)c2cc(OC3COC3)nc(-n3ccnc3)n2)CC1` [Compound 150], the pIC50 is 7.80.
On to `CC(C)(O)c1ccc(NC(=O)c2cc(C(F)(F)F)nc(-n3ccnc3)n2)cc1F` [Compound 180], for which the negative logarithm of the IC50 (pIC50) was 7.96.
For the compound `COCCOc1cc(F)cc(NC(=O)c2cc(C(F)(F)F)nc(-n3ccnc3)n2)c1` [Compound 182], the pIC50 is 8.02.
To `CO[C@H]1CC[C@H](NC(=O)c2cc(-c3ccnc(C(F)(F)F)c3)nc(-n3ccnc3)n2)CC1` [Compound 184] belongs 7.55; to `CO[C@H]1CC[C@H](NC(=O)c2cc(-n3ccnc3)cc(-n3ccnc3)n2)CC1` [compound 1, 4,6-di (1H-imidazol-1-yl)-N-((1r,4r)-4-methoxycyclohexyl)picolinamide], 7.54.
In the case of `CO[C@H]1CC[C@H](NC(=O)c2cc(-n3ccnc3)cc(Cl)n2)CC1` [compound 2, 6-chloro-4-(1H-imidazol-1-yl)-N-((1r,4r)-4-methoxycyclohexyl)picolinamide], the pIC50 is 5.57.
The figure for `CO[C@H]1CC[C@H](NC(=O)c2cc(-n3ccnc3)cc(=O)[nH]2)CC1` [compound 3, 4-(1H-imidazol-1-yl)-N-((1r,4r)-4-methoxycyclohexyl)-6-oxo-1.6-dihydropyridine-2-carboxamide] is less than 5.00; for `COc1cc(C(=O)N[C@H]2CC[C@H](OC)CC2)nc(-n2ccnc2)c1` [compound 4, 6-(1H-imidazol-1-yl)-4-methoxy-N-((1r,4r)-4-methoxycyclohexyl)picolinamide] it is 7.40.
The figure for `CO[C@H]1CC[C@H](NC(=O)c2cc(O)cc(-n3ccnc3)n2)CC1` [compound 5, 4-hydroxy-6-(1H-imidazol-1-yl)-N-((1r,4r)-4-methoxycyclohexyl)picolinamide] is 6.05.
For `CO[C@H]1CC[C@H](NC(=O)c2cc(-c3cncs3)ccc2NC(C)=O)CC1` [compound 6, 2-acetamido-N-((1r,4r)-4-methoxycyclohexyl)-5-(thiazol-5-yl) benzamide], the pIC50 is less than 5.00.
The figure for `CO[C@H]1CC[C@H](NC(=O)c2cc(-c3cncs3)ccc2N)CC1` [compound 7, 2-amino-N-((1r,4r)-4-methoxycyclohexyl)-5-(thiazol-5-yl) benzamide] is less than 5.00; for `CO[C@H]1CC[C@H](NC(=O)c2cccc(-c3cncs3)c2F)CC1` [compound 8, 2-fluoro-N-((1r,4r)-4-methoxycyclohexyl)-3-(thiazol-5-yl)benzamide] it is less than 5.00.
The figure for `CO[C@H]1CC[C@H](NC(=O)c2cc(-n3ccnc3)nnc2N)CC1` [compound 10, 3-amino-6-(1H-imidazol-1-yl)-N-((1r,4r)-4-methoxycyclohexyl)pyridazine-4-carboxamide] is 6.14; for `CO[C@H]1CC[C@H](NC(=O)c2cccc(-c3cncs3)n2)CC1` [compound 12, N-((1r,4r)-4-methoxycyclohexyl)-6-(thiazol-5-yl)picolinamide] it is less than 5.00; for `CO[C@H]1CC[C@H](NC(=O)c2cccc(-c3ccno3)n2)CC1` [compound 17, 6-(isoxazol-5-yl)-N-((1r,4r)-4-methoxycyclohexyl)picolinamide] it is less than 5.00.
In the case of `CO[C@H]1CC[C@H](NC(=O)c2cccc(-c3nnco3)n2)CC1` [compound 19, N-((1r,4r)-4-methoxycyclohexyl)-6-(1,3,4-oxadiazol-2-yl) picolinamide], the pIC50 was less than 5.00.
To `CO[C@H]1CC[C@H](NC(=O)c2ccc(N)c(-n3ccnc3)n2)CC1` [compound 20, 5-amino-6-(1H-imidazol-1-yl)-N-((1r,4r)-4-methoxycyclohexyl)picolinamide] belongs less than 5.00; to `CO[C@H]1CC[C@H](NC(=O)c2cc(-n3ccnc3)nc(N)n2)CC1` [compound 21, 2-amino-6-(1H-imidazol-1-yl)-N-((1r,4r)-4-methoxycyclohexyl)pyrimidine-4-carboxamide], 8.10; to `CNc1nc(C(=O)N[C@H]2CC[C@H](OC)CC2)cc(-n2ccnc2)n1` [compound 22, 6-(1H-imidazol-1-yl)-N-((1r,4r)-4-methoxycyclohexyl)-2-(methylamino)pyrimidine-4-carboxamide], 5.56.
The figure for `CO[C@H]1CC[C@H](NC(=O)c2cc(N(C)C)nc(-n3ccnc3)n2)CC1` [compound 23, 6-(dimethylamino)-2-(1H-imidazol-1-yl)-N-((1r,4r)-4-methoxycyclohexyl)pyrimidine-4-carboxamide] is 7.35; for `CNc1cc(C(=O)N[C@H]2CC[C@H](OC)CC2)nc(-n2ccnc2)n1` [compound 24, 2-(1H-imidazol-1-yl)-N-((1r,4r)-4-methoxycyclohexyl)-6-(methylamino)pyrimidine-4-carboxamide] it is 7.52.
Regarding `CO[C@H]1CC[C@H](NC(=O)c2cc(N3CCCCC3)nc(-n3ccnc3)n2)CC1` [compound 26, 2-(1H-imidazol-1-yl)-N-((1r,4r)-4-methoxycyclohexyl)-6-(piperidin-1-yl)pyrimidine-4-carboxamide], the pIC50 was 7.34.
The figure for `CO[C@H]1CC[C@H](NC(=O)c2nc(-c3cncs3)cnc2N)CC1` [compound 27, 3-amino-N-((1r,4r)-4-methoxycyclohexyl)-6-(thiazol-5-yl)pyrazine-2-carboxamide] is 6.07; for `CO[C@H]1CC[C@H](NC(=O)c2cc(-n3ccnc3)cnn2)CC1` [compound 28, 5-(1H-imidazol-1-yl)-N-((1r,4r)-4-methoxycyclohexyl)pyridazine-3-carboxamide] it is 4.65; for `CO[C@H]1CC[C@H](NC(=O)c2cc(-c3cncs3)cc3cc[nH]c23)CC1` [compound 29, N-((1r,4r)-4-methoxycyclohexyl)-5-(thiazol-5-yl)-1H-indole-7-carboxamide] it is 7.60.
`O=C(NC1CCCCC1)c1cncc(-n2ccnc2)n1` [compound 30, N-cyclohexyl-6-(1H-imidazol-1-yl)pyrazine-2-carboxamide]: the pIC50 was 7.38.
The figure for `CC(C)NC(=O)c1cncc(-n2ccnc2)n1` [compound 31, 6-(1H-imidazol-1-yl)-N-isopropylpyrazine-2-carboxamide] is 6.40; for `O=C(NC1CCOCC1)c1cncc(-n2ccnc2)n1` [compound 32, 6-(1H-imidazol-1-yl)-N-(tetrahydro-2H-pyran-4-yl)pyrazine-2-carboxamide] it is 7.08; for `O=C(NC1CCNCC1)c1cncc(-n2ccnc2)n1` [compound 33, 6-(1H-imidazol-1-yl)-N-(piperidin-4-yl)pyrazine-2-carboxamide] it is 5.39.
Take `CC(C)(C)NC(=O)c1cncc(-n2ccnc2)n1` [compound 34, N-(tert-butyl)-6-(1H-imidazol-1-yl)pyrazine-2-carboxamide]: the negative logarithm of the IC50 (pIC50) was 5.41.
To `O=C(Nc1ccccc1)c1cncc(-n2ccnc2)n1` [compound 35, 6-(1H-imidazol-1-yl)-N-phenylpyrazine-2-carboxamide] belongs 8.40; to `CN1CCC(NC(=O)c2cncc(-n3ccnc3)n2)CC1` [compound 36, 6-(1H-imidazol-1-yl)-N-(1-methylpiperidin-4-yl)pyrazine-2-carboxamide], 5.01.
The figure for `O=C(NCC1CCCCC1)c1cncc(-n2ccnc2)n1` [compound 37, N-(cyclohexylmethyl)-6-(1H-imidazol-1-yl)pyrazine-2-carboxamide] is 6.46.
For `O=C(NCc1ccccc1)c1cncc(-n2ccnc2)n1` [compound 38, N-benzyl-6-(1H-imidazol-1-yl)pyrazine-2-carboxamide], the negative-log IC50 (pIC50) is 6.34.
The figure for `CC(NC(=O)c1cncc(-n2ccnc2)n1)C1CCCCC1` (centres unmarked) [compound 39, N-(1-cyclohexylethyl)-6-(1H-imidazol-1-yl)pyrazine-2-carboxamide] is 6.65.
Turning to `CC(=O)N1CCC(NC(=O)c2cncc(-n3ccnc3)n2)CC1` [compound 40, N-(1-acetylpiperidin-4-yl)-6-(1H-imidazol-1-yl)pyrazine-2-carboxamide], the pIC50 was 7.02.
On to `CO[C@H]1CC[C@H](NC(=O)c2nc(-n3ccnc3)cnc2N)CC1` [compound 41, 3-amino-6-(1H-imidazol-1-yl)-N-((1r,4r)-4-methoxycyclohexyl) pyrazine-2-carboxamide], for which the pIC50 is 7.89.
On to `Nc1ncc(-n2ccnc2)nc1C(=O)NC1CCCCC1` [compound 42, 3-amino-N-cyclohexyl-6-(1H-imidazol-1-yl)pyrazine-2-carboxamide], for which the negative logarithm of the IC50 (pIC50) is 7.96.
In the case of `CO[C@H]1CC[C@H](NC(=O)c2nc(-n3ccnc3)cnc2N(C)C)CC1` [compound 46, 3-(dimethylamino)-6-(1H-imidazol-1-yl)-N-((1r,4r)-4-methoxycyclohexyl) pyrazine-2-carboxamide], the pIC50 was 6.27.
Turning to `CNc1ncc(-n2ccnc2)nc1C(=O)N[C@H]1CC[C@H](OC)CC1` [compound 47, 6-(1H-imidazol-1-yl)-N-((1r,4r)-4-methoxycyclohexyl)-3-(methylamino)pyrazine-2-carboxamide], the negative logarithm of the IC50 (pIC50) is 7.42.
The figure for `O=C(NC1CCCCC1)c1cccc(-n2ccnc2)n1` [compound 49, N-cyclohexyl-6-(1H-imidazol-1-yl)picolinamide] is 7.15.
